Measured values from article PMC3847553, “Kinetic properties of “dual” orexin receptor antagonists at OX1R and OX2R orexin receptors” (Frontiers in Neuroscience, 2013).
Like-named read-outs stand apart in the source and are kept apart here.

Legend:
rat OX2R = target: T1, rat OX2R (Rattus norvegicus, UniProt P56719); test: FLIPR orexin A-stimulated calcium accumulation, rat OX2R; type: cell-based; conditions: HEK cells
T1 sequence (P56719 1-460): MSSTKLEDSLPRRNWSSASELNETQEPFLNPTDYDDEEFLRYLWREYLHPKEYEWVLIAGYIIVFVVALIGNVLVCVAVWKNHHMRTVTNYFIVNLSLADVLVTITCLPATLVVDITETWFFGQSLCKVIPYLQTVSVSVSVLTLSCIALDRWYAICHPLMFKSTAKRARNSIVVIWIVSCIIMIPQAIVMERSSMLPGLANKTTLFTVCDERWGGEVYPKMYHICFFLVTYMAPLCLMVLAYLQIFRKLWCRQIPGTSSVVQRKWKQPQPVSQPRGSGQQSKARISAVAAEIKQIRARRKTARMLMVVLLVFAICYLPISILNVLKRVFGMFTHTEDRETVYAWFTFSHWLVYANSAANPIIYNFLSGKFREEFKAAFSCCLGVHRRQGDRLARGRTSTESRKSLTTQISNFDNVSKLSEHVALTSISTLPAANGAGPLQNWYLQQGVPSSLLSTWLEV
Excerpt: (§1) Chinese Hamster Ovary (CHO) cells stably transfected with the cDNA encoding the human OX1R (CHO-hOX1) or OX2R (CHO-hOX2) were used (kindly provided by T. Cremer and Dr. S. Geisse, NIBR Basel, Switzerland). For measurements of calcium accumulation using FLIPR® (Fluorescent Imaging Plate Reader) assay, CHO or Human Embryonic Kidney (HEK) cells stably expressing mouse, rat or human OX1R or OX2R (kindly provided by Dr. A. Chen, GNF, San Diego, CA, USA) were used. […] Cells were maintained in a humidified incubator at 37°C in 5% CO2. For crude cell membrane preparations, cells were washed and harvested in 10 mM HEPES (pH 7.5), and centrifuged at 4°C for 5 min at 2500 g. The cell pellet was either stored at −80°C or used directly.
(§2) Cells expressing either human, rat or mouse OX1R or OX2R were seeded at 8,000 cells/well in black 384 well clear bottom plates and incubated overnight at 37°C. The following day, medium was discarded and cells loaded with 50 μ l of 1 mM Fluo-4 AM (Invitrogen F14202) in dimethyl sulfoxide in working buffer (Hanks' balanced salt solution, 10 mM HEPES) and incubated for 60 min at 37°C. The loading buffer was removed and cells were washed with 100 μ l working buffer containing […], 0.1% BSA, and 2.5 mM Probenecid (pH 7.4) to remove the excess Fluo-4 AM. […] The assay plate was then transferred to the Molecular Devices-FLIPR384. The baseline calcium signal was recorded for 10 s, then the antagonist of interest was injected (10 μl at 3 times the final concentration) and the calcium signal recorded every second for 1 min, then every 2 s 40 times.

human OX1R = target: T2, human OX1R (Homo sapiens, UniProt O43613); test: FLIPR orexin A-stimulated calcium accumulation, human OX1R; type: cell-based; conditions: CHO cells
T2 construct: expressed in transfected cells; host or cells: CHO; cells from GNF, San Diego
T2 sequence (O43613 1-425): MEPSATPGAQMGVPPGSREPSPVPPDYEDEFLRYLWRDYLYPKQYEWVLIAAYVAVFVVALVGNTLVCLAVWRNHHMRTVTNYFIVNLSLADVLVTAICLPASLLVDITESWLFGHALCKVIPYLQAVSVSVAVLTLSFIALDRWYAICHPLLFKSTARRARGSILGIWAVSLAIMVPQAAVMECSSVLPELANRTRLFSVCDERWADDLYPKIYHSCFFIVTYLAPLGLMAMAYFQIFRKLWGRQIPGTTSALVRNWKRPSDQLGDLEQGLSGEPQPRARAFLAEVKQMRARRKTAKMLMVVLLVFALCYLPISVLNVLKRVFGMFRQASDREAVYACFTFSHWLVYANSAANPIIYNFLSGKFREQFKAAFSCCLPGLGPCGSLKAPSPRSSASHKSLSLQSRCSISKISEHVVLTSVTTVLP
Excerpt: as §1, §2

[1] = antagonist incubation 30 min, read-out: pKi (converted)
[2] = antagonist incubation 1 h, read-out: pKi (converted)
[3] = antagonist incubation 2 h, read-out: pKi (converted)
[4] = antagonist incubation 4 h, read-out: pKi (converted)

| Structure (SMILES) | Ki (rat OX2R; [1]) | Ki (rat OX2R; [2]) | Ki (rat OX2R; [3]) | Ki (rat OX2R; [4]) | Ki (human OX1R; antagonist incubation 30 min) | Ki (human OX1R; antagonist incubation 1 h) | Ki (human OX1R; antagonist incubation 2 h) | Ki (human OX1R; antagonist incubation 4 h) | pKi (human OX1R; antagonist incubation 1 h) | pKi (human OX1R; antagonist incubation 2 h) | Ki (rat OX2R; pKi, antagonist incubation 30 min) | Ki (rat OX2R; pKi, antagonist incubation 1 h) | Ki (rat OX2R; pKi, antagonist incubation 2 h) | Ki (rat OX2R; pKi, antagonist incubation 4 h) |
| --- | --- | --- | --- | --- | --- | --- | --- | --- | --- | --- | --- | --- | --- | --- |
| CNC(=O)[C@@H](c1ccccc1)N1CCc2cc(OC)c(OC)cc2[C@@H]1CCc1ccc(C(F)(F)F)cc1 [Almorexant] | 5.62 nM | 2.24 nM | 1.02 nM | 0.661 nM | – | – | – | – | – | – | – | – | – | – |
| Cc1ccc(-c2ncccn2)c(C(=O)N2C[C@H](COc3ccc(F)cn3)CC[C@H]2C)c1 [Filorexant] | 0.741 nM | 0.417 nM | 0.251 nM | 0.178 nM | 2.24 nM | 1.62 nM | 1.66 nM | 2.82 nM | – | – | – | – | – | – |
| COc1ccnc(N2CCC3(CCCN(Cc4c[nH]c5ccccc45)C3=O)CC2)n1 [IPSU, 2-((1H-Indol-3-yl)methyl)-9-(4-methoxypyrimidin-2-yl)-2,9-diazaspiro[5.5]undecan-1-one] | 23.4 nM | 28.2 nM | 24 nM | 28.2 nM | 479 nM | – | – | 724 nM | 6.29 −log M | 6.28 −log M | – | – | – | – |
| Cc1nc(C(=O)N2CCCC[C@H]2CNC(=O)c2cccc3occc23)c(-c2ccc(F)cc2)s1 [SB-649868] | 0.457 nM | 0.316 nM | 0.155 nM | 0.141 nM | 0.933 nM | 1.35 nM | 0.513 nM | 0.417 nM | – | – | – | – | – | – |
| Cc1ccc(-n2nccn2)c(C(=O)N2CCN(c3nc4cc(Cl)ccc4o3)CC[C@H]2C)c1 [Suvorexant] | – | – | – | – | – | – | – | – | – | – | 1.95 nM | 0.871 nM | 0.603 nM | 0.427 nM |
